Laboratory results taken from the kinase profiling compilation of Christmann-Franck et al. (2016).

Tests used:
Conditions in all cases: compound 10.0 µM
KDR (human) = KDR (human) (UniProt P35968)
[1] = tested on: EGFR (human), P00533 [L861Q]
ANKK1 (human) = ANKK1 (human) (UniProt Q8NFD2)
AKT2 (human) = AKT2 (human) (UniProt P31751)
PIK3CA (human) = PIK3CA (human) (UniProt P42336)
[2] = tested on: EGFR (human), P00533 [752-759 del]
[3] = tested on: PIK3CA (human), P42336 [E542K]
[4] = tested on: EGFR (human), P00533 [G719S]
PIK3CD (human) = PIK3CD (human) (UniProt O00329)
[5] = tested on: EGFR (human), P00533 [P753S; 747-752 del]
MYLK3 (human) = MYLK3 (human) (UniProt Q32MK0)
[6] = tested on: EGFR (human), P00533 [T790M/L858R]
CIT (human) = CIT (human) (UniProt O14578)
TSSK1B (human) = TSSK1B (human) (UniProt Q9BXA7)
[7] = tested on: KIT (human), P10721 [D816H]
PIK3CG (human) = PIK3CG (human) (UniProt P48736)
STK33 (human) = STK33 (human) (UniProt Q9BYT3)
EGFR (human) = EGFR (human) (UniProt P00533)
MAPK15 (human) = MAPK15 (human) (UniProt Q8TD08)
SRC (human) = SRC (human) (UniProt P12931)
[8] = tested on: PIK3CA (human), P42336 [M1043I]
TIE1 (human) = TIE1 (human) (UniProt P35590)
[9] = tested on: ABL1 (human), P00519 [E255K]
[10] = tested on: PIK3CA (human), P42336 [E545A]
NEK1 (human) = NEK1 (human) (UniProt Q96PY6)
[11] = tested on: EGFR (human), P00533 [746-750 del]
[12] = tested on: PIK3CA (human), P42336 [H1047L]
HIPK2 (human) = HIPK2 (human) (UniProt Q9H2X6)
[13] = tested on: EGFR (human), P00533 [G719C]
CDK8 (human) = CDK8 (human) (UniProt P49336)
EPHB4 (human) = EPHB4 (human) (UniProt P54760)
[14] = tested on: FLT3 (human), P36888 [D835Y]
[15] = tested on: KIT (human), P10721 [D816V]
[16] = tested on: PIK3CA (human), P42336 [H1047Y]
SNRK (human) = SNRK (human) (UniProt Q9NRH2)
FRK (human) = FRK (human) (UniProt P42685)
AURKB (human) = AURKB (human) (UniProt Q96GD4)
[17] = tested on: EGFR (human), P00533 [747-751 del / S ins]
[18] = tested on: PIK3CA (human), P42336 [E545K]
RPS6KA5 KD2 (human) = RPS6KA5 KD2 (human) (UniProt O75582)
[19] = tested on: PIK3CA (human), P42336 [I800L]

TSSK1B (human), sequence (Q9BXA7 whole entry, looked up): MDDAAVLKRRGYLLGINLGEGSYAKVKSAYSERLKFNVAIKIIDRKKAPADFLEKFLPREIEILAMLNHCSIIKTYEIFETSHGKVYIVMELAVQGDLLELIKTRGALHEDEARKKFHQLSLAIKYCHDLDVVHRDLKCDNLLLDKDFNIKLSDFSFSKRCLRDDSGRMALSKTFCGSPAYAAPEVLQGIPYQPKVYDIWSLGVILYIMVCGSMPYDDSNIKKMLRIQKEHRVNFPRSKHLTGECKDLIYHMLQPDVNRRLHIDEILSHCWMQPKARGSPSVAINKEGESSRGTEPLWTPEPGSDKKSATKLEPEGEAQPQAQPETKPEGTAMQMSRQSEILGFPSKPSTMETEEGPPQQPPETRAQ
SNRK (human), sequence (Q9NRH2 whole entry, looked up): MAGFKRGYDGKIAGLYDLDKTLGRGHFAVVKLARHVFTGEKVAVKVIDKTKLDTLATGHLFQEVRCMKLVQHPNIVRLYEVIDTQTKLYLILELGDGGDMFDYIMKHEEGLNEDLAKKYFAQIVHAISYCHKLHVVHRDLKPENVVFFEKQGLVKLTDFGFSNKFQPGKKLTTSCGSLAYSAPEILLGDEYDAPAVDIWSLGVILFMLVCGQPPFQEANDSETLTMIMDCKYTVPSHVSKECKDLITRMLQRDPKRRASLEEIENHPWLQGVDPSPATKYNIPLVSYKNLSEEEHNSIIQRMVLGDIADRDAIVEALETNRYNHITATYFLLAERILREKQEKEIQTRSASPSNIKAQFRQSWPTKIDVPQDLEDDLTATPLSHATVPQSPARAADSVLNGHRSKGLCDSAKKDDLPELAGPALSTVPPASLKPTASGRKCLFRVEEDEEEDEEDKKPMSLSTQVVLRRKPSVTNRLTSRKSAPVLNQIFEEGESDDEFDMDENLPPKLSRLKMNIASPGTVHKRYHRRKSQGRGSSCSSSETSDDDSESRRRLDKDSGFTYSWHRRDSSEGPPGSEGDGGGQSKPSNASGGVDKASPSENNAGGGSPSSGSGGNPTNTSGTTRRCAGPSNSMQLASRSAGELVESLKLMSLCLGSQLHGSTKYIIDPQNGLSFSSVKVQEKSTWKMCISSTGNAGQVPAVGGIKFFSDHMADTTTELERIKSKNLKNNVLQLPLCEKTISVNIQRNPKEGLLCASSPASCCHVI
CIT (human), sequence (O14578 whole entry, looked up): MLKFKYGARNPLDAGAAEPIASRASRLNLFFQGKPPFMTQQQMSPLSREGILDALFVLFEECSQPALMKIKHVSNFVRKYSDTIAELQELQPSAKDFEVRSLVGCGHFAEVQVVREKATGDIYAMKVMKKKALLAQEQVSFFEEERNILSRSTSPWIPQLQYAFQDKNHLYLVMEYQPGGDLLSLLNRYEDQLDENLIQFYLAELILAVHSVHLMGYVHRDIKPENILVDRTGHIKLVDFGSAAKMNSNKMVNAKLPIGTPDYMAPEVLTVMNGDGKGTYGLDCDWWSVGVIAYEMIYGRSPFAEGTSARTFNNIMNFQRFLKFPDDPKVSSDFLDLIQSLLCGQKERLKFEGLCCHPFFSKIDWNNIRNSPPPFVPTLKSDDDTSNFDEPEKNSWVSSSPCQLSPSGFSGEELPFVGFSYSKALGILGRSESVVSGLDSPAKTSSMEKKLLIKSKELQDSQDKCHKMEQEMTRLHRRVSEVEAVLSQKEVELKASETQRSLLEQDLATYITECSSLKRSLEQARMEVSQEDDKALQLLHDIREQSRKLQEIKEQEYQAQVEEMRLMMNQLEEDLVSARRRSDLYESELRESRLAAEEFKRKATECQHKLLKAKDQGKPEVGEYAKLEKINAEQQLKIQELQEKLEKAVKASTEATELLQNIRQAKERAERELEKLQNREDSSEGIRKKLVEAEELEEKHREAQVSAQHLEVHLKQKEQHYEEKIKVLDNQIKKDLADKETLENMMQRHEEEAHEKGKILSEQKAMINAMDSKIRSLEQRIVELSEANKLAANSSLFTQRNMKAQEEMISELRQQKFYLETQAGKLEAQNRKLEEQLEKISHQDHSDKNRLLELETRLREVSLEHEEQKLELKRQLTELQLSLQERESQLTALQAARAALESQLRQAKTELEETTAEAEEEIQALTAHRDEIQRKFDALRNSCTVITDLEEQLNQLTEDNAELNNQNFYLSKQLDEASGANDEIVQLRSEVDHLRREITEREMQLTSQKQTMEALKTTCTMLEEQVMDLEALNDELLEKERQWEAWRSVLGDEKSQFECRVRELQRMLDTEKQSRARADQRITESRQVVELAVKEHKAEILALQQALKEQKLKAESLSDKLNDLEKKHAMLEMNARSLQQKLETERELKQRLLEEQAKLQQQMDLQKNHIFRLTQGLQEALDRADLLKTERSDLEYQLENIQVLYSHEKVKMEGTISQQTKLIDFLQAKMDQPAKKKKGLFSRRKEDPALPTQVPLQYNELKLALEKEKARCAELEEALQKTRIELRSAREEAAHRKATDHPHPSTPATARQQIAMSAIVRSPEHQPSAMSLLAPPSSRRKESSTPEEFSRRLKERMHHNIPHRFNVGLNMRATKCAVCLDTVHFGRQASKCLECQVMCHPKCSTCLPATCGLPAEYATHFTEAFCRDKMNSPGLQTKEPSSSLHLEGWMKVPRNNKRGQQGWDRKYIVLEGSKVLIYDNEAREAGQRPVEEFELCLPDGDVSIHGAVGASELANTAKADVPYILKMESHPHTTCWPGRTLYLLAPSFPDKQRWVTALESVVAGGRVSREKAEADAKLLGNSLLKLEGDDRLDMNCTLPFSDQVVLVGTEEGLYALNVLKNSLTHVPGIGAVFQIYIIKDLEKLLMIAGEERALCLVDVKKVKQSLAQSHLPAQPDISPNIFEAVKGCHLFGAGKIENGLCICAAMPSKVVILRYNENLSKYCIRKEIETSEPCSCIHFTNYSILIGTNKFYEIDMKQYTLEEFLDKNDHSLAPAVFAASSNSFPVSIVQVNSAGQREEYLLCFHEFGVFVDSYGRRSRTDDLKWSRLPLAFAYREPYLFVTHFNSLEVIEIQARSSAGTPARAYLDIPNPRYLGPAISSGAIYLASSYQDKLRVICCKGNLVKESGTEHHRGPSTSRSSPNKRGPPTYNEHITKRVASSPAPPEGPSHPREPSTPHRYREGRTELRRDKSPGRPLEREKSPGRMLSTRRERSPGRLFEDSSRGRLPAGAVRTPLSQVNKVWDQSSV
STK33 (human), sequence (Q9BYT3 whole entry, looked up): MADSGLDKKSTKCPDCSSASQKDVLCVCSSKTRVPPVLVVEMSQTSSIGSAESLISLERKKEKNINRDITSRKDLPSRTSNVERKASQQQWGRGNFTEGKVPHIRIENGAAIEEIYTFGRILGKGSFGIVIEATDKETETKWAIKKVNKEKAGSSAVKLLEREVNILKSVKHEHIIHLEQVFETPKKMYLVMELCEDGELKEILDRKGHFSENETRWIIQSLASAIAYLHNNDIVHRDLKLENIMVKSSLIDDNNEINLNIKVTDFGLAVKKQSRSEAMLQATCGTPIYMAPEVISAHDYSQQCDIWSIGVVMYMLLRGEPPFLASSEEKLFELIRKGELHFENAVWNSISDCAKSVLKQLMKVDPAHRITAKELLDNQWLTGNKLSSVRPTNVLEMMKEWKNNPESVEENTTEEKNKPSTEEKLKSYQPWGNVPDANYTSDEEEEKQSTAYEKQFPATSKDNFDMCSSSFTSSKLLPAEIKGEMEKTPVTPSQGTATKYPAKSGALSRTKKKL
ABL1 (human), P00519 [E255K], sequence (P00519 whole entry E255K, looked up): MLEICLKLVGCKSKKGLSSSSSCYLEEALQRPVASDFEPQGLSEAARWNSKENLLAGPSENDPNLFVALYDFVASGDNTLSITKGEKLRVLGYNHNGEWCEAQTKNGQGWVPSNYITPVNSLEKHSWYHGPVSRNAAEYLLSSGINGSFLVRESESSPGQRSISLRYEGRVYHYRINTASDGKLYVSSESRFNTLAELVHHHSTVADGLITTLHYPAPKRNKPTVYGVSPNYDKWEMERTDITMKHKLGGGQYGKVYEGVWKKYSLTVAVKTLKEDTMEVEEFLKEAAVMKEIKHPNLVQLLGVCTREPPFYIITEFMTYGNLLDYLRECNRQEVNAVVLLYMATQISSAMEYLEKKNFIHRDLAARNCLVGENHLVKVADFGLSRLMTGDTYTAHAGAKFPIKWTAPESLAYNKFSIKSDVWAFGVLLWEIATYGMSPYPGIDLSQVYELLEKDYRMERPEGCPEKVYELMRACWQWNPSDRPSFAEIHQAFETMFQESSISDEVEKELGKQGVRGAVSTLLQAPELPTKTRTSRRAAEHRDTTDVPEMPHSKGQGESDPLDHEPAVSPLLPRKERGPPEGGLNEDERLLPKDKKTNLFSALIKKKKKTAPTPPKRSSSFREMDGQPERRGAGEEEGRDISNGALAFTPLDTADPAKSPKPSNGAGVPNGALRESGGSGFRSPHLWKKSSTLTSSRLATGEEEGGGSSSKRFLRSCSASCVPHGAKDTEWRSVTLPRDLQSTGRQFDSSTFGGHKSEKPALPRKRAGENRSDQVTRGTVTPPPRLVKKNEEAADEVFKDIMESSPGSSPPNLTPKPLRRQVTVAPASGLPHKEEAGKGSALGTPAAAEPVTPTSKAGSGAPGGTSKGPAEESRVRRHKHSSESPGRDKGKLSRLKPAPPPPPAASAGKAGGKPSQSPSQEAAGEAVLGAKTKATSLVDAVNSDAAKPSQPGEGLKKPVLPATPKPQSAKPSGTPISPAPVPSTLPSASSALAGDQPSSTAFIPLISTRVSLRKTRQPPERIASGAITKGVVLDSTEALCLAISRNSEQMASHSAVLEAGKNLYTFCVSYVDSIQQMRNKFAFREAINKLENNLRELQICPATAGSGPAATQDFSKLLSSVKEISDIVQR

For CNC(=O)c1cc(Oc2ccc(NC(=O)Nc3ccc(Cl)c(C(F)(F)F)c3)cc2)cc[n+]1[O-], the per cent of control (KDR (human)) was 0.4%, the per cent of control [1] was 74% and the per cent of control (ANKK1 (human)) was 58%. It also gave a per cent of control (AKT2 (human)) of 88%, a per cent of control (PIK3CA (human)) of 95% and a per cent of control [2] of 96%. It also gave a per cent of control [3] of 100%, a per cent of control [4] of 100% and a per cent of control (PIK3CD (human)) of 100%. The per cent of control [5] was 77%, the per cent of control (MYLK3 (human)) was 2.8% and the per cent of control [6] was 82%. It also gave a per cent of control (CIT (human)) of 27%, a per cent of control (TSSK1B (human)) of 100% and a per cent of control [7] of 17%. For the same molecule, the per cent of control (PIK3CG (human)) was 82%, the per cent of control (STK33 (human)) was 6.9% and the per cent of control (EGFR (human)) was 75%. It also gave a per cent of control (MAPK15 (human)) of 0.6%, a per cent of control (SRC (human)) of 53% and a per cent of control [8] of 83%. The per cent of control (TIE1 (human)) was 0.3%, the per cent of control [9] was 38% and the per cent of control [10] was 100%. The per cent of control (NEK1 (human)) was 84%, the per cent of control [11] was 84% and the per cent of control [12] was 98%. For the same molecule, the per cent of control (HIPK2 (human)) was 20%, the per cent of control [13] was 80% and the per cent of control (CDK8 (human)) was 0.6%. For the same molecule, the per cent of control (EPHB4 (human)) was 16%, the per cent of control [14] was 2.8% and the per cent of control [15] was 2.6%. For the same molecule, the per cent of control [16] was 100%, the per cent of control (SNRK (human)) was 95% and the per cent of control (FRK (human)) was 1.8%. The per cent of control (AURKB (human)) was 0%, the per cent of control [17] was 76% and the per cent of control [18] was 100%. It also gave a per cent of control (RPS6KA5 KD2 (human)) of 81% and a per cent of control [19] of 100%.
CNC(=O)c1cc(Oc2ccc(NC(=O)Nc3ccc(Cl)c(C(F)(F)F)c3)cc2)ccn1 showed a per cent of control (CIT (human)) of 20%, a per cent of control (TSSK1B (human)) of 98% and a per cent of control (STK33 (human)) of 6%. The per cent of control (SNRK (human)) was 100%.
